Consider one compound from patent publication US6562848B1, “Bis-amino acid sulfonamides as HIV protease inhibitors” (Bristol-Myers Squibb Company, priority 2001, dated 2003).

The term melting point denotes the temperature of the solid-liquid transition. Regarding `CC(C)CN(C[C@@H](O)[C@H](Cc1ccccc1)NC(=O)[C@@H](NC(=O)CNC(=O)C(C)C)C(C)(C)C)S(=O)(=O)c1ccc2c(c1)OCO2` (stereo in doubt), the melting point fell in the range of 205 to 206 °C.
